Assay results from patent publication US8937077B2, “Bicyclic diamines as janus kinase inhibitors” (Merck Sharp & Dohme Corp., priority 2010, dated 2015).

molecular target: T1, Jak1 (Homo sapiens, UniProt P23458); assay: Jak Biochemical HTRF Assay (Jak1); conditions: IC50 class, recombinant GST-tagged catalytic domain, read-out: Jak1 activity
T1 construct: using a recombinant purified GST-tagged catalytic domain for each enzyme; GST; purchased Invitrogen M4290
Summary of the method: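 Recombinant GST-tagged Jak1 catalytic domain was preincubated with compound and peptide substrate for 30 min at room temperature, and the reaction was then started with ATP and run 120 min. Buffer contained 2 mM DTT and 0.05% BSA. Read-out was HTRF (665/615 nm) with Eu-pY20 antibody and streptavidin-Dylight, and IC50 values came from 4-parameter fits of percent inhibition.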

T1 sequence (P23458 875-1153 limits assumed): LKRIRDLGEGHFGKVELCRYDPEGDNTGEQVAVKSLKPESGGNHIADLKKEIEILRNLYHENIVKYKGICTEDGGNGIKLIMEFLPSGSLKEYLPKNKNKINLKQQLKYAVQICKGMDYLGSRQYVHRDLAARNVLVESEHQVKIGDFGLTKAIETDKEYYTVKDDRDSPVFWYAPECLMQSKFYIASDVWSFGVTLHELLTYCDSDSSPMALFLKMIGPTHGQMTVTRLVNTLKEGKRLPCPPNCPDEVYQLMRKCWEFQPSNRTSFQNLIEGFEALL

Compound	IC50
O=C(c1ccnc2ccccc12)N1CCC[C@@H]2[C@H]1CCN2c1ncnc2[nH]ccc12 [Example 29-61, 4-{[(3aR,7aR)-1-(7H-pyrrolo[2,3-d]pyrimidin-4-yl)octahydro-4H-pyrrolo[3,2-b]pyridin-4-yl]carbonyl}quinoline]	10 to 100 nM
COC(=O)c1ccc(COC(=O)N2CCCC3C2CCN3c2ncnc3[nH]ccc23)cc1 (stereo not drawn) [Example 3-25, 4-(methoxycarbonyl)benzyl 1-(7H-pyrrolo[2,3-d]pyrimidin-4-yl)octahydro-4H-pyrrolo[3,2-b]pyridine-4-carboxylate]	1 to 10 nM
O=C(c1cc2ccsc2[nH]1)N1CCC[C@@H]2[C@H]1CCN2c1ncnc2[nH]ccc12 [Example 29-48, 4-[(3aR,7aR)-4-(6H-thieno[2,3-b]pyrrol-5-ylcarbonyl)octahydro-1H-pyrrolo[3,2-b]pryidin-1-yl]7H-pyrrolo[2,3-d]pyrimidine]	100 to 1000 nM
O=C(c1cc(-c2cccc(F)c2)no1)N1CCC[C@@H]2[C@H]1CCN2c1ncnc2[nH]ccc12 [Example 29-57, 4-[(3aR,7aR)-4-{[3-(3-fluorophenyl)isoxazol-5-yl]carbonyl}octahydro-1H-pyrrolo[3,2b]pryidin-1-yl]-7H-pyrrolo[2,3-d]pyrimidine]	100 to 1000 nM
COC(=O)c1ccc(CN(C)C(=O)N2CCC[C@@H]3[C@H]2CCN3c2ncnc3[nH]ccc23)cc1 [Example 24, methyl 4-[(methyl{[(3aR,7aR)-1-(7H-pyrrolo[2,3-d]pyrimidin-4-yl)octahydro-4H-pyrrolo[3,2-b]-pyridin-4-yl]carbonyl}amino)methyl]benzoate]	1 to 10 nM
O=C(OCCN1CCS(=O)(=O)CC1)N1CCC[C@@H]2[C@H]1CCN2c1ncnc2[nH]ccc12 [Example 3-27, 2-(1,1-dioxidothiomorpholin-4-yl)ethyl (3 aR,7 aR)-1-(7H-pyrrolo[2,3-d]pyrimidin-4-yl)octahydro-4H-pyrrolo[3,2-b]pyridine-4-carboxylate]	100 to 1000 nM
O=S(=O)(Cc1ccccc1)N1CCC[C@@H]2[C@H]1CCN2c1ncnc2[nH]ccc12 (single isomer, unassigned) [Example 32-7]	10 to 100 nM
O=C(c1cncc2ccccc12)N1CCC[C@@H]2[C@H]1CCN2c1ncnc2[nH]ccc12 [Example 29-40, 4-{[(3aR,7aR)-1-(7H-pyrrolo[2,3-d]pyrimidin-4-yl)octahydro-4H-pyrrolo[3,2-b]pyridin-4-yl]carbonyl}isoquinoline]	10 to 100 nM
O=C(c1ccc2ccccc2c1)N1CCC[C@@H]2[C@H]1CCN2c1ncnc2[nH]ccc12 [Example 29-26, 4-[(3aR,7aR)-4-(naphthalen-2-ylcarbonyl)octahydro-1H-pyrrolo[3,2-b]pyridin-1-yl]-7H-pyrrolo[2,3-d]pyrimidine]	10 to 100 nM
COC(=O)c1ccc(COC(=O)N2CCC[C@@H]3[C@H]2CCN3c2ncnc3[nH]ccc23)cc1 [Example 4, 4-(methoxycarbonyl)benzyl (3aR,7aR)-1-(7H-pyrrolo[2,3-d]pyrimidin-4-yl)octahydro-4H-pyrrolo[3,2-b]pyridine-4-carboxylate]	1 to 10 nM
O=C(c1ccco1)N1CCC[C@@H]2[C@H]1CCN2c1ncnc2[nH]ccc12 [Example 29-9, 4-[(3 aR,7aR)-4-(furan-2-ylcarbonyl)octahydro-1H-pyrrolo[3,2-b]pyridin-1-yl]-7H-pyrrolo[2,3-d]pyrimidine]	10 to 100 nM
NCc1ccc(COC(=O)N2CCC[C@@H]3[C@H]2CCN3c2ncnc3[nH]ccc23)cc1 [Example 9, 4-(aminomethyl)benzyl (3aR,7aR)-1-(7H-pyrrolo[2,3-d]pyrimidin-4-yl)octahydro-4H-pyrrolo[3,2-b]pyridine-4-carboxylate]	100 to 1000 nM
O=C(c1nccc2ccccc12)N1CCC[C@@H]2[C@H]1CCN2c1ncnc2[nH]ccc12 [Example 29-47, 1-{[(3aR,7aR)-1-(7H-pyrrolo[2,3-d]pyrimidin-4-yl)octahydro-4H-pyrrolo[3,2-b]pyridin-4-yl]carbonyl}isoquinoline]	10 to 100 nM
O=C(c1cccc(Cl)c1)N1CCC[C@@H]2[C@H]1CCN2c1ncnc2[nH]ccc12 [Example 29-18, 4-{(3aR,7aR)-4-[(3-chlorophenyl)carbonyl]octahydro-1H-pyrrolo[3,2-b]pyridin-1-yl}-7H-pyrrolo[2,3-d]pyrimidine]	10 to 100 nM
O=C(OCc1ccc(CO)cc1)N1CCC[C@@H]2[C@H]1CCN2c1ncnc2[nH]ccc12 [Example 10, 4-(hydroxymethyl)benzyl (3aR,7aR)-1-(7H-pyrrolo[2,3-d]pyrimidin-4-yl)octahydro-4H-pyrrolo[3,2-b]pyridine-4-carboxylate]	100 to 1000 nM
O=C(OCc1ccncc1)N1CCCC2C1CCN2c1ncnc2[nH]ccc12 (stereo not drawn) [Example 3-13, pyridin-4-ylmethyl 1-(7H-pyrrolo[2,3-d]pyrimidin-4-yl)octahydro-4H-pyrrolo[3,2-b]-pyridine-4-carboxylate]	10 to 100 nM
COC(=O)c1ccc(CCCOC(=O)N2CCC[C@@H]3[C@H]2CCN3c2ncnc3[nH]ccc23)cc1 [Example 3-22, 3-[4-(methoxycarbonyl)phenyl]propyl (3aR,7aR)-1-(7H-pyrrolo[2,3-d]pyrimidin-4-yl)octahydro-4H-pyrrolo[3,2-b]pyridine-4-carboxylate]	10 to 100 nM
O=C(OCCF)N1CCC[C@@H]2[C@H]1CCN2c1ncnc2[nH]ccc12 (single isomer, unassigned) [Example 3-30]	10 to 100 nM
O=C(O)c1ccc(CCCN2CCC[C@@H]3[C@H]2CCN3c2ncnc3[nH]ccc23)cc1 [Example 14, 4-{3-[(3aR,7aR)-1-(7H-pyrrolo[2,3-d]pyrimidin-4-yl)octahydro-4H-pyrrolo[3,2-b]pyridin-4-yl]propyl}benzoic acid]	100 to 1000 nM
Cc1ccc(COC(=O)N2CCCC3C2CCN3c2ncnc3[nH]ccc23)cc1 (stereo not drawn) [Example 3-17, 4-methylbenzyl 1-(7H-pyrrolo[2,3-d]pyrimidin-4-yl)octahydro-4H-pyrrolo[3,2-b]-pyridine-4-carboxylate]	10 to 100 nM
NC(=O)c1ccc(COC(=O)N2CCC[C@@H]3[C@H]2CCN3c2ncnc3[nH]ccc23)cc1 [Example 7-2, 4-carbamoylbenzyl (3aR,7aR)-1-(7H-pyrrolo[2,3-d]pyrimidin-4-yl)octahydro-4H-pyrrolo[3,2-b]pyridine-4-carboxylate]	10 to 100 nM
O=C(c1c[nH]c2ccncc12)N1CCC[C@@H]2[C@H]1CCN2c1ncnc2[nH]ccc12 [Example 29-45, 4-[(3aR,7aR)-4-(1H-pyrrolo[3,2-c]pyridin-3-ylcarbonyl)octahydro-1H-pyrrolo[3,2-b]pyridin-1-yl]-7H-pyrrolo[2,3-d]pyrimidine]	10 to 100 nM
COC(=O)C1CC1CCOC(=O)N1CCC[C@@H]2[C@H]1CCN2c1ncnc2[nH]ccc12 (stereo partly drawn) [Example 3-29, 2-[2-(methoxycarbonyl)cyclopropyl]ethyl (3aR,7aR)-1-(7H-pyrrolo[2,3-d]pyrimidin-4-yl)octahydro-4H-pyrrolo[3,2-b]pyridine-4-carboxylate]	10 to 100 nM
COC(=O)c1cccc(COC(=O)N2CCC[C@@H]3[C@H]2CCN3c2ncnc3[nH]ccc23)c1 [Example 3-20, 3-(methoxycarbonyl)benzyl (3aR,7aR)-1-(7H-pyrrolo[2,3-d]pyrimidin-4-yl)octahydro-4H-pyrrolo[3,2-b]pyridine-4-carboxylate]	100 to 1000 nM
O=C(c1ncoc1C1CC1)N1CCC[C@@H]2[C@H]1CCN2c1ncnc2[nH]ccc12 [Example 29-41, 4-{(3aR,7aR)-4-[(5-cyclopropyl-1,3-oxazol-4-yl)carbonyl]octahydro-1H-pyrrolo[3,2-b]pyridin-1-yl}-7H-pyrrolo[2,3-d]pyrimidine]	10 to 100 nM

same assay, conditions: Jak1 activity, IC50 class, recombinant GST-tagged catalytic domain

Compound	IC50
O=C(c1cc2ccccc2[nH]1)N1CCC[C@@H]2[C@H]1CCN2c1ncnc2[nH]ccc12 [Example 29-19, 4-[(3aR,7aR)-4-(1H-indol-2-ylcarbonyl)octahydro-1H-pyrrolo[3,2-b]pyridin-1-yl]-7H-pyrrolo[2,3-d]pyrimidine]	100 to 1000 nM

same assay, conditions: recombinant GST-tagged catalytic domain, 31.8 μM ATP, read-out: Representative IC50 values

Compound	IC50
COC(=O)c1ccc(COC(=O)N2CCC[C@@H]3[C@H]2CCN3c2ncnc3[nH]ccc23)cc1 [Example 4, 4-(methoxycarbonyl)benzyl (3aR,7aR)-1-(7H-pyrrolo[2,3-d]pyrimidin-4-yl)octahydro-4H-pyrrolo[3,2-b]pyridine-4-carboxylate]	2 nM
